From ChEMBL document CHEMBL4007392, “Modulating Mineralocorticoid Receptor with Non-steroidal Antagonists. New Opportunities for the Development of Potent and Selective Ligands without Off-Target Side Effects” (J Med Chem, 2017)
Blank lines part the entries; values can stand above or below the compound they belong to.

How the values were obtained:
[1] = biological target: T1, Mineralocorticoid receptor (Homo sapiens, UniProt P08235); assay: Binding affinity to MR (unknown origin)
T1 sequence (P08235 whole entry): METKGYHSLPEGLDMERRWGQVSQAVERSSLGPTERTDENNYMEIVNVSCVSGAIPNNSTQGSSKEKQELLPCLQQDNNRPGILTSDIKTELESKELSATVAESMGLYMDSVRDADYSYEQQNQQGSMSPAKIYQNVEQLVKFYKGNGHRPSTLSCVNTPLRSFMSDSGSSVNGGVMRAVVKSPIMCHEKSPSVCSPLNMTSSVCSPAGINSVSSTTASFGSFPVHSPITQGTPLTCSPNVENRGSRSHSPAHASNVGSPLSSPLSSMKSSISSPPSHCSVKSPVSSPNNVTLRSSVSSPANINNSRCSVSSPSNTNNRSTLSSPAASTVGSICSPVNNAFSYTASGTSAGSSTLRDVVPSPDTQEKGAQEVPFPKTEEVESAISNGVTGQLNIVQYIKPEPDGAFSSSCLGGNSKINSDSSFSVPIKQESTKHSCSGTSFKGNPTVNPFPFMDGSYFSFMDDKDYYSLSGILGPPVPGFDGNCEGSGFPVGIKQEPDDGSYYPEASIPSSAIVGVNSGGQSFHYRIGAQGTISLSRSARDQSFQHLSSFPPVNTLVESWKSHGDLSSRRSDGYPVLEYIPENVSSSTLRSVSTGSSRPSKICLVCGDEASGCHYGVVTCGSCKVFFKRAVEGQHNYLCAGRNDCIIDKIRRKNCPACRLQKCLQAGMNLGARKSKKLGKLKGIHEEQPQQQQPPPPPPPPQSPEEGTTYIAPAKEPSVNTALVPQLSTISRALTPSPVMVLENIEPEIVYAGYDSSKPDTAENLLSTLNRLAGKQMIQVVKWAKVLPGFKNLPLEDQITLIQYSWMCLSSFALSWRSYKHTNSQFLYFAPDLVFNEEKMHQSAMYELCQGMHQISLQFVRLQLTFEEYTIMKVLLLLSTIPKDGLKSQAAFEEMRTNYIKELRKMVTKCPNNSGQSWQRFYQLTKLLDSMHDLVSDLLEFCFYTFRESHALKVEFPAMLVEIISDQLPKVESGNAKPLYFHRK

[2] = biological target: T2, Mineralocorticoid receptor (Rattus norvegicus, UniProt P22199); assay: Displacement of [3H]-Aldosterone from MR in rat renal soluble fraction measured after 18 hrs in presence of glucocorticoid receptor antagonist RU-486 by liquid scintillation counting method
T2 sequence (P22199 whole entry): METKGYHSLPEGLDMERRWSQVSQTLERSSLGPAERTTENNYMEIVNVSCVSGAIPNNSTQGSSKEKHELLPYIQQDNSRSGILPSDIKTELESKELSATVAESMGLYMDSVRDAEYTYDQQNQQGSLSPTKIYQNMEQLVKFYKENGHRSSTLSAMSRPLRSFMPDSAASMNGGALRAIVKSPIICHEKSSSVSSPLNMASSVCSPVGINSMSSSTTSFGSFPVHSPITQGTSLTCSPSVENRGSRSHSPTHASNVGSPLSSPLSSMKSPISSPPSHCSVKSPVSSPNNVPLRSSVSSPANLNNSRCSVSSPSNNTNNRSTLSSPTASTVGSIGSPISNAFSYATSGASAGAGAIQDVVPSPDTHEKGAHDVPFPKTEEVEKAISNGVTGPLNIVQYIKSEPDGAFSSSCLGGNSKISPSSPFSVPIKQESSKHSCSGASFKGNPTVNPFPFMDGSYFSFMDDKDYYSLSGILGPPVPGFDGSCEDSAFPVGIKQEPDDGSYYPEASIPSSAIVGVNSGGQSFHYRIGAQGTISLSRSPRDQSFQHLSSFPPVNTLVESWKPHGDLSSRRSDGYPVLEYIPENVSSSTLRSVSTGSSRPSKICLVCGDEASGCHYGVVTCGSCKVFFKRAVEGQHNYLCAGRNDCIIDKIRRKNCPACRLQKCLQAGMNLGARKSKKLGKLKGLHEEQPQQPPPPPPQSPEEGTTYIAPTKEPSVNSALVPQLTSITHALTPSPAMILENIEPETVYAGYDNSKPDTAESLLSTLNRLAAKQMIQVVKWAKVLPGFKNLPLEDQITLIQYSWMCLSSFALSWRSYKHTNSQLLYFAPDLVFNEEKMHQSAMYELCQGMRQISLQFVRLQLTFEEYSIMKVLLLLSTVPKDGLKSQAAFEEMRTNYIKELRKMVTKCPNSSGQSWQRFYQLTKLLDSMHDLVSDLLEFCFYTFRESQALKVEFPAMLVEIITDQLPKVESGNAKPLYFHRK

[3] = Half life in human hepatocytes; type: ADME, cell-based, Hepatocyte
[4] = Half life in human liver microsomes; type: ADME, microsome
[5] = biological target: T3, Mineralocorticoid receptor (Homo sapiens) (UniProt P08235); assay: Antagonist activity at full-length human MR expressed in CHO-K1 cells assessed as inhibition of aldosterone-induced response measured after overnight incubation by luminesence analysis; type: cell-based
T3 sequence (whole entry): T1 sequence (P08235 whole entry)

[6] = biological target: T1, Mineralocorticoid receptor; assay: Antagonist activity at Gal4-fused MR LBD (unknown origin) expressed in human Huh7 cells assessed as inhibition of aldosterone-induced transcriptional activity after 3 hrs by luciferase reporter gene assay; type: cell-based
[7] = Half life in rat; type: ADME; conditions: in vivo
[8] = Clearance in rat; type: ADME; conditions: in vivo

- IC50 [2]: 61 nM
Compound: COc1cc(NC(=O)c2ccc(-c3ccccc3OC(F)(F)F)c(CCN3CC(C)OC(C)C3)c2)ccc1S(N)(=O)=O (stereo not drawn)

- IC50 [2]: 22 nM
Compound: COc1cc(NC(=O)c2ccc(-c3ccccc3OC(F)(F)F)c(CCN(C)C3CC3)c2)ccc1S(N)(=O)=O

- IC50 [2]: 31 nM
Compound: COc1cc(NC(=O)c2ccc(-c3ccccc3C(F)(F)F)c(COC(C)=O)c2)ccc1S(N)(=O)=O

Further lines, the compound ahead of its results:

Compound: C[C@]12CCC(=O)C=C1CC[C@@H]1[C@@H]2[C@@H](O)C[C@@]2(C)[C@H]1CC[C@]2(O)C(=O)CO [HYDROCORTISONE]
- Kd [1]: 0.5 to 2 nM

Compound: CCC(c1ccc(Br)cc1)(C(C)O)n1ncc2c(NS(C)(=O)=O)cccc21 (stereo not drawn)
- half-life [3]: 1.15 h
- half-life [4]: 0.8 h
- Inhibitory potency [5]: 7 nM

Compound: C[C@@H]1CN(c2ccc3c(n2)NC(=O)CO3)CCO1
- IC50 [6]: 3050 nM

Compound: CCC(c1ccc(C(F)(F)F)cc1)(C(O)C(F)F)n1ncc2c(NS(C)(=O)=O)cccc21 (stereo not drawn)
- half-life [3]: > 1.5 h
- half-life [4]: 1.03 h
- half-life [7]: 9.9 h
- clearance [8]: 3.8 mL/min/kg
- Inhibitory potency [5]: 11 nM
